Source: BigSolDB 2.1
Values joined by “and” are separate entries in the source; they are usually repeats but may differ in a detail not shown here. Identical values can stand only once.

C(=N\Nc1ccccc1)/c1cccs1
Conditions	solubility (mole fraction)
in water, 298.15 K	5.19e-07

N[C@@H](Cc1cnc[nH]1)C(=O)O
in water
Conditions	solubility (mole fraction)
283.15 K	0.0035
288.15 K	0.00384
293.15 K	0.00417
298.15 K	0.00459
303.15 K	0.0051
308.15 K	0.00562
313.15 K	0.00613
318.15 K	0.00667

CCc1ccc(CCOc2ccc(CC3SC(=O)NC3=O)cc2)nc1.Cl (configuration not stated)
in methanol
Conditions	solubility (mole fraction)
283.15 K	0.00517
293.15 K	0.00754
303.15 K	0.0102
313.15 K	0.0149
323.15 K	0.0223

c1ccc2cc3ccccc3cc2c1
298.15 K
Conditions	solubility (mole fraction)
in 2,2,4-trimethylpentane	0.00107
in 2-butoxyethanol	0.00379
in 2-ethoxyethanol	0.00292
in 2-methoxyethanol	0.00221
in 2-pentanol	0.0008
in 2-propoxyethanol	0.00334
in MTBE	0.00305
in cyclohexane	0.00155
in isobutanol	0.00047
in isopentanol	0.000727
in isopropanol	0.000411
in methylcyclohexane	0.00165
in n-butanol	0.000801
in n-heptane	0.00157 and 0.00158
in n-hexane	0.00127
in n-octane	0.00184
in n-octanol	0.00216
in n-pentanol	0.0011
in n-propanol	0.000591
in sec-butanol	0.000585
in tert-amyl alcohol	0.00079
in tetrahydropyran	0.0102

Oc1cc(O)c2cc1Cc1cc(c(O)cc1O)Cc1cc(c(O)cc1O)Cc1cc(c(O)cc1O)C2
in water
Conditions	solubility (mole fraction)
278.15 K	3.22e-06
283.15 K	4.29e-06
288.15 K	4.86e-06
293.15 K	6.26e-06
298.15 K	6.59e-06
303.15 K	7.16e-06
308.15 K	7.68e-06

O=c1ccc2ccccc2o1
in water
Conditions	solubility (mole fraction)
298.15 K	0.000235
303.15 K	0.000319
308.15 K	0.000388
313.15 K	0.000439
